Source: PubChem BioAssay AID1963432 (Molecular Pharmacology Branch, DTP, NCI, 2024)

System: SYO-1 complex spheroid growth, percent test/control
Assay: Anticancer human tumor SYO-1 cell line growth inhibition [Asc];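 note: compound exposure lasted 7 days after spheroids grew 3 days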;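 for viability, T/C: 100% = DMSO vehicle control viability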
Conditions: for IC50: curve of first compound; for viability, T/C: stronger effect = lower value
Outline: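 Tumor cells were grown as multicellular spheroids with stromal HUVEC and mesenchymal stem cells and treated singly or in combination. Concentrations fell in half-log steps from the clinical Cmax, or from 10 microM where none was known.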

For `C=C(F)C(=O)N1CCN(c2nc(OCC3CCCN3C)nc3c2CCN(c2cccc4cccc(Cl)c24)C3)CC1CC#N` (configuration not stated) + Cc1c(S(C)(=O)=O)c(-c2cc(F)cc(N3CCN(c4ccc(NS(=O)(=O)c5ccc(NC(CCN6CCC(C(=O)OCCCP(=O)(O)O)CC6)CSc6ccccc6)c(S(=O)(=O)C(F)(F)F)c5)cc4)CC3)c2)c(-c2ccc(Cl)cc2)n1C(C)C, the IC50 (second compound 0.0316 µM) was 4950 nM, the IC50 (second compound 0.1 µM) was 3360 nM and the IC50 (second compound 0.316 µM) was 1740 nM. It also gave an IC50 (second compound 1 µM) of 1730 nM, an IC50 (second compound 3.16 µM) of 1670 nM and an IC50 (second compound 10 µM) of 1590 nM. It also gave a viability, T/C (second compound 0.0316 µM, first compound 0.0316 µM) of 97.2%, a viability, T/C (second compound 0.0316 µM, first compound 0.1 µM) of 87.6% and a viability, T/C (second compound 0.0316 µM, first compound 0.316 µM) of 97.8%. The viability, T/C (second compound 0.0316 µM, first compound 1 µM) was 101%, the viability, T/C (second compound 0.0316 µM, first compound 3.16 µM) was 81.6% and the viability, T/C (second compound 0.0316 µM, first compound 10 µM) was 0.62%. For the same molecule, the viability, T/C (second compound 0.1 µM, first compound 0.0316 µM) was 92.7%, the viability, T/C (second compound 0.1 µM, first compound 0.1 µM) was 96.7% and the viability, T/C (second compound 0.1 µM, first compound 0.316 µM) was 96.3%. For the same molecule, the viability, T/C (second compound 0.1 µM, first compound 1 µM) was 98.3%, the viability, T/C (second compound 0.1 µM, first compound 3.16 µM) was 52.8% and the viability, T/C (second compound 0.1 µM, first compound 10 µM) was 0.77%. The viability, T/C (second compound 0.316 µM, first compound 0.0316 µM) was 98.8%, the viability, T/C (second compound 0.316 µM, first compound 0.1 µM) was 97% and the viability, T/C (second compound 0.316 µM, first compound 0.316 µM) was 97.3%. For the same molecule, the viability, T/C (second compound 0.316 µM, first compound 1 µM) was 95.1%, the viability, T/C (second compound 0.316 µM, first compound 3.16 µM) was 1.32% and the viability, T/C (second compound 0.316 µM, first compound 10 µM) was 0.42%. For the same molecule, the viability, T/C (second compound 1 µM, first compound 0.0316 µM) was 89.6%, the viability, T/C (second compound 1 µM, first compound 0.1 µM) was 89.7% and the viability, T/C (second compound 1 µM, first compound 0.316 µM) was 88.4%. For the same molecule, the viability, T/C (second compound 1 µM, first compound 1 µM) was 109%, the viability, T/C (second compound 1 µM, first compound 3.16 µM) was 0.8% and the viability, T/C (second compound 1 µM, first compound 10 µM) was 1.26%. For the same molecule, the viability, T/C (second compound 3.16 µM, first compound 0.0316 µM) was 92.9%, the viability, T/C (second compound 3.16 µM, first compound 0.1 µM) was 78.6% and the viability, T/C (second compound 3.16 µM, first compound 0.316 µM) was 87.8%. For the same molecule, the viability, T/C (second compound 3.16 µM, first compound 1 µM) was 97.6%, the viability, T/C (second compound 3.16 µM, first compound 3.16 µM) was 0.94% and the viability, T/C (second compound 3.16 µM, first compound 10 µM) was 1.06%. The viability, T/C (second compound 10 µM, first compound 0.0316 µM) was 89.5%, the viability, T/C (second compound 10 µM, first compound 0.1 µM) was 78.9% and the viability, T/C (second compound 10 µM, first compound 0.316 µM) was 71.5%. It also gave a viability, T/C (second compound 10 µM, first compound 1 µM) of 91.6%, a viability, T/C (second compound 10 µM, first compound 3.16 µM) of 0.9% and a viability, T/C (second compound 10 µM, first compound 10 µM) of 0.74%.
